Measured values reported in US20230165922A1, “APPLICATION OF RADIX GENTIANAE MACROPHYLLAE AND MONOMER COMPOUND THEREOF IN KILLING MITES” (SMILEBIOTECK ZHUHAI LIMITED, priority 2020, published 2023).

Experiments:
[1] = tested on: D.folliculorum; assay: Preliminary in-vitro screening of monomer compounds for effect on survival time of Demodex mites; details: 20° C., humidity 96%; for Survival time (hours) of D.folliculorum in vitro: 35 µL monomer compound solution in 10% DMSO, observed every 2 hours, mean ± SD
Source text: The names and molecular formulas of the monomer compounds are shown in the following table: The monomer compounds were purchased from Chengdu Herbpurify Co., Ltd., and were standard references.
The powders of the monomer compounds shown in Table 2 were separately dissolved in dimethyl sulfoxide (DMSO), and then diluted with sterilized double-distilled water to make the final concentration of DMSO 10%, which could not shorten the survival time of Demodex mites as per a controlled study. The negative control group received DMSO mixed with sterilized water at a final concentration of 10%.
As in Example 1, 35 µL of each solution was added to a glass slide, and the survival of the mites was observed under an optical microscope every 2 hours. During the experiment, the Demodex mites were observed by two skilled operators separately for the activities (bodies, limbs and the like) through the microscope to determine whether they were dead or not. If the two operators gave different results, the survival status was determined independently by a third skilled operator. The in-vitro culture was conducted in a climatic chamber at a temperature of 20° C. and a humidity of 96%. During the observation, the glass slides were transported in a wet box to ensure the high humidity.
In this experiment, statistical analysis was conducted using SPSS22.0 statistical software, normality test was conducted using Shapiro-Wilk test, and homogeneity of variance test was conducted using Bartlett’s test.
Effects of monomer compounds of traditional Chinese medicine on survival time of D.folliculorum The in-vitro culture of the Demodex mites was conducted in an environment at a humidity of 96% and a temperature of 20° C. The survival of the Demodex mites was observed dynamically and the survival time was recorded.

[2] = tested on: D.folliculorum; assay: In-vitro culture of Demodex mites with traditional Chinese medicine decoctions (survival time); details: 20° C., humidity 96%
Experimental: The ethical guidelines of “The Declaration of Helsinki” and “Measures for the Ethical Review of Biomedical Research Involving Humans” were strictly followed in this study. Demodex mites from patients diagnosed with ocular Demodex infestation were collected in this study. Subjects who met the inclusion criteria were enrolled after giving an informed conversation and signing an informed consent.
The detection of Demodex mites was performed according to the conventional method of eyelash microscopy (12,20). 3 eyelashes were collected from each eyelid, with a total of 12 eyelashes. […] Demodex mites in all periods were counted and classified according to morphology (specific standard: D.brevis with a head-to-body ratio of 1:1, and D.folliculorum with a head-to-body ratio of 1:3 to 1:4). […]
On the basis of the above detection of Demodex mites, 35 µL of the solutions was separately added to the slides, and the survival of the mites was observed every 2 hours. […] If the two operators gave different results, the survival status was determined independently by a third skilled operator. […]
60 g of dried ready-to-use forms was weighed using an electronic balance, and soaked in water with an amount of 10 times (600 mL) in a marmite overnight. […]

SMILES	Survival time (hours) of D.folliculorum in vitro [1]	also measured
COC(=O)c1c2c(c3ccccc3c1O)OC(C)(C)C=C2 [Mollugin]	61.10 ± 25.12 h	
C=C[C@H]1[C@H](O[C@@H]2O[C@H](CO)[C@@H](O)[C@H](O)[C@H]2O)OC=C2C(=O)OCC[C@H]21 [Sweroside]	60.79 ± 25.98 h	
C[C@@H]1[C@H]2[C@H](O[C@@H]3O[C@H](CO)[C@@H](O)[C@H](O)[C@H]3O)OC=C(C(=O)O)[C@H]2C[C@@H]1O [Loganic acid]	61.56 ± 22.84 h	
C=C[C@@H]1C2=CCOC(=O)C2=CO[C@H]1O[C@@H]1O[C@H](CO)[C@@H](O)[C@H](O)[C@H]1O [Gentiopicroside]	37.31 ± 36.06 h	Survival time (hours) of D.folliculorum in vitro ([1]; listed as gentiopicroside): 37.31 ± 36.06 h; Effect on in-vitro survival time of Demodex mites versus 10% DMSO negative control ([1]; compared with 10% DMSO solution): significantly shorter
C=C[C@H]1[C@H](O[C@@H]2O[C@H](CO)[C@@H](O)[C@H](O)[C@H]2O)OC=C2C(=O)OCC[C@]21O [Swertiamarin]	59.68 ± 10.97 h	
COc1cc2ccc(=O)oc2cc1O [Scopoletin]	54.67 ± 25.66 h	
CC1=CCC(O)(C(C)C)CC1 (centres unmarked) [T40, terpinen-4-ol]		Survival time (hours) of D.folliculorum in vitro ([2]; 35 µL solution on slide, decoctions of 60 g medicine made up to 100 mL water, TTO and T4O 10% in sterilized water, observed every 2 hours, mean ± SD): 40.50 ± 13.12 h; Difference in in-vitro survival time of Demodex mites versus control groups (statistical comparison) ([2]; Bonferroni comparison with negative control sterilized water (and TTO, T40 groups)): did not show significant differences
C=C(C)[C@@H]1CC[C@]2(C)[C@H](CC=C3[C@@H]4[C@@H](C)[C@H](C)CC[C@]4(C)CC[C@]32C)[C@@]1(C)CCC(=O)O [Roburic acid]	63.41 ± 12.20 h	
